For 56 compounds, Hepatotoxicity results are on record in ChEMBL document CHEMBL1697723, “A predictive ligand-based Bayesian model for human drug-induced liver injury” (Drug Metab Dispos, 2010).

Molecules are shown by their SMILES. Residues, ends and D or L forms follow the SMILES beside them.

One data set deals with Hepatotoxicity. Description: Human drug-induced liver injury (DILI) modelling dataset from Ekins et al.
Conditions: not given
As for `C=C1[C@@H]2CCC3[C@@](CC[C@@H]4[C@H](C(=O)O)C[C@@H](O[C@@H]5O[C@H](CO)[C@@H](OS(=O)(=O)[O-])[C@H](OS(=O)(=O)[O-])[C@H]5OC(=O)CC(C)C)C[C@@]34C)(C2)[C@@H]1O.[K+].[K+]` (stereo partly specified) [ATRACTYLOSIDE], the Hepatotoxicity entry is “DILI positive (training set)”.
Still for that read-out and setting: as for `[N-]=[N+]=CC(=O)OC[C@H](N)C(=O)O` [AZASERINE], the entry is “DILI positive (training set)”; as for `CN1CCC(=C2c3ccccc3CCc3cccnc32)CC1.O=C(O)/C=C\C(=O)O.O=C(O)/C=C\C(=O)O` [AZATADINE MALEATE], “DILI positive (test set)”.
Take `CC[C@H]1OC(=O)[C@H](C)[C@@H](O[C@H]2C[C@@](C)(OC)[C@@H](O)[C@H](C)O2)[C@H](C)[C@@H](O[C@@H]2O[C@H](C)C[C@H](N(C)C)[C@H]2O)[C@](C)(O)C[C@@H](C)CN(C)[C@H](C)[C@@H](O)[C@]1(C)O` [AZITHROMYCIN]: the Hepatotoxicity result is on record as “DILI negative (test set)”.
Same read-out and setting: as for `CC1(C)S[C@@H]2[C@H](NC(=O)[C@H](NC(=O)N3CCNC3=O)c3ccccc3)C(=O)N2[C@H]1C(=O)[O-].[Na+]` [AZLOCILLIN SODIUM], the entry is “DILI negative (test set)”; as for `C[C@H]1[C@H](NC(=O)/C(=N\OC(C)(C)C(=O)O)c2csc(N)n2)C(=O)N1S(=O)(=O)O` [AZTREONAM], “DILI negative (training set)”; as for `CC[C@H](C)[C@H](N)C1=N[C@H](C(=O)N[C@@H](CC(C)C)C(=O)N[C@H](CCC(=O)O)C(=O)N[C@H](C(=O)N[C@H]2CCCCNC(=O)[C@H](CC(N)=O)NC(=O)[C@@H](CC(=O)O)NC(=O)[C@H](Cc3cnc[nH]3)NC(=O)[C@@H](Cc3ccccc3)NC(=O)[C@H]([C@@H](C)CC)NC(=O)[C@@H](CCCN)NC2=O)[C@@H](C)CC)CS1` [BACITRACIN] (HELM PEPTIDE1{[CC[C@H](C)[C@H](N)C1=N[C@H](C(=O)[*:2])CS1].L.[dE].I.K.[NCCC[C@@H](N[*:1])C(=O)[*:2]].I.[dF].H.[dD].N}$PEPTIDE1,PEPTIDE1,5:R3-11:R2$$$V2.0), “DILI negative (training set)”.
Same read-out and setting: as for `CN(C)C(=O)Oc1cc(OC(=O)N(C)C)cc(C(O)CNC(C)(C)C)c1` (stereo unspecified) [BAMBUTEROL], the entry is “DILI negative (training set)”; as for `CCC(=O)OCC(=O)[C@@]1(OC(=O)CC)[C@@H](C)C[C@H]2[C@@H]3CCC4=CC(=O)C=C[C@]4(C)[C@@]3(Cl)[C@@H](O)C[C@@]21C` [BECLOMETHASONE DIPROPIONATE], “DILI negative (training set)”; as for `CCOC(=O)[C@H](CCc1ccccc1)N[C@H]1CCc2ccccc2N(CC(=O)O)C1=O` [BENAZEPRIL], “DILI negative (training set)”.
Take `CC(C(=O)O)c1ccc2oc(-c3ccc(Cl)cc3)nc2c1` (stereo unspecified) [BENOXAPROFEN]: the Hepatotoxicity entry was “DILI positive (test set)”.
Still for that read-out and setting: as for `CCc1oc2ccccc2c1C(=O)c1cc(Br)c(O)c(Br)c1` [BENZBROMARONE], the entry is “DILI positive (training set)”; as for `CC(C)COCC(CN(Cc1ccccc1)c1ccccc1)N1CCCC1.Cl.O` (stereo unspecified) [BEPRIDIL HYDROCHLORIDE], “DILI positive (training set)”; as for `CNCCc1ccccn1.Cl.Cl` [BETAHISTINE HYDROCHLORIDE], “DILI positive (training set)”.
In the case of `C[N+](C)(C)CC(=O)O.[Cl-]` [BETAINE HYDROCHLORIDE], the Hepatotoxicity entry is “DILI negative (test set)”.
Same read-out and setting: as for `C[C@H]1C[C@H]2[C@@H]3CCC4=CC(=O)C=C[C@]4(C)[C@@]3(F)[C@@H](O)C[C@]2(C)[C@@]1(O)C(=O)CO` [BETAMETHASONE], the entry is “DILI negative (training set)”; as for `CC(C)(Oc1ccc(CCNC(=O)c2ccc(Cl)cc2)cc1)C(=O)O` [BEZAFIBRATE], “DILI negative (training set)”; as for `CC(O)(CS(=O)(=O)c1ccc(F)cc1)C(=O)Nc1ccc(C#N)c(C(F)(F)F)c1` (stereo unspecified) [BICALUTAMIDE], “DILI positive (training set)”.
Still for that read-out and setting: as for `O=C(O)CCCC[C@@H]1SC[C@@H]2NC(=O)N[C@@H]21` [BIOTIN], the entry is “DILI negative (training set)”; as for `CCCC[C@@H](CC)COC(=O)c1ccccc1C(=O)OC[C@@H](CC)CCCC` [BIS(2-ETHYLHEXYL)PHTHALATE], “DILI positive (test set)”.
Still for that read-out and setting: as for `Oc1c(Cl)cc(Cl)cc1Sc1cc(Cl)cc(Cl)c1O` [BITHIONOL], the entry is “DILI positive (test set)”; as for `COc1ccccc1Oc1c(NS(=O)(=O)c2ccc(C(C)(C)C)cc2)nc(-c2ncccn2)nc1OCCO` [BOSENTAN], “DILI positive (test set)”.
Turning to `Nc1c(CC(=O)O)cccc1C(=O)c1ccc(Br)cc1` [BROMFENAC], the Hepatotoxicity entry is “DILI positive (test set)”.
Consider `Brc1ccccc1` [BROMOBENZENE], for which the Hepatotoxicity result is reported as “DILI positive (test set)”.
`NCCBr` [BROMOETHANAMINE]: the Hepatotoxicity result is listed as “DILI positive (test set)”.
The same measure, in the same setting: as for `CN(C)CCC(c1ccc(Br)cc1)c1ccccn1.O=C(O)/C=C\C(=O)O` (stereo unspecified) [BROMPHENIRAMINE MALEATE], the entry is “DILI negative (training set)”; as for `CCCCNc1cc(C(=O)O)cc(S(N)(=O)=O)c1Oc1ccccc1` [BUMETANIDE], “DILI positive (training set)”.
The same measure, in the same setting: as for `CCCCN1CCCCC1C(=O)Nc1c(C)cccc1C` (stereo unspecified) [BUPIVACAINE], the entry is “DILI negative (training set)”; as for `CC(NC(C)(C)C)C(=O)c1cccc(Cl)c1.Cl` (stereo unspecified) [BUPROPION HYDROCHLORIDE], “DILI negative (training set)”; as for `O=C1CC2(CCCC2)CC(=O)N1CCCCN1CCN(c2ncccn2)CC1` [BUSPIRONE], “DILI negative (test set)”.
Same read-out and setting: as for `CS(=O)(=O)OCCCCOS(C)(=O)=O` [BUSULFAN], the entry is “DILI positive (training set)”.
With `Clc1ccc(CCC(Cn2ccnc2)Sc2c(Cl)cccc2Cl)cc1.O=[N+]([O-])O` (stereo unspecified) [BUTOCONAZOLE NITRATE], the Hepatotoxicity entry was “DILI negative (test set)”.
On the same count and under the same terms, as for `Cc1cc(C(C)(C)C)c(O)c(C(C)(C)C)c1` [BUTYLATED HYDROXYTOLUENE], the entry is “DILI positive (test set)”; as for `Cn1c(=O)c2c(ncn2C)n(C)c1=O` [CAFFEINE], “DILI negative (test set)”.
The same measure, in the same setting: as for `C=C1CC[C@H](O)C/C1=C/C=C1\CCC[C@]2(C)[C@@H]([C@H](C)CCCC(C)(C)O)CC[C@@H]12.O` [CALCIFEDIOL], the entry is “DILI positive (test set)”.
Consider `CC(C)(CO)[C@@H](O)C(=O)NCCC(=O)[O-].CC(C)(CO)[C@@H](O)C(=O)NCCC(=O)[O-].[Ca+2]` [CALCIUM PANTOTHENATE], for which the Hepatotoxicity result is “DILI negative (training set)”.
The same measure, in the same setting: as for `COc1cc(CNC(=O)CCCC/C=C/C(C)C)ccc1O` [CAPSAICIN], the entry is “DILI negative (test set)”; as for `C[C@H](CS)C(=O)N1CCC[C@H]1C(=O)O` [CAPTOPRIL], “DILI positive (training set)”; as for `NC(=O)N1c2ccccc2C=Cc2ccccc21` [CARBAMAZEPINE], “DILI positive (test set)”.
Same read-out and setting: as for `COC(=O)Nc1nc2ccccc2[nH]1` [CARBENDAZIM], the entry is “DILI positive (training set)”.
With `CC1(C)[C@@H](OC(=O)CCC(=O)[O-])CC[C@]2(C)[C@H]3C(=O)C=C4[C@@H]5C[C@@](C)(C(=O)[O-])CC[C@]5(C)CC[C@@]4(C)[C@]3(C)CC[C@@H]12.[Na+].[Na+]` [CARBENOXOLONE SODIUM], the Hepatotoxicity entry is reported as “DILI negative (training set)”.
Still for that read-out and setting: as for `C[C@@](Cc1ccc(O)c(O)c1)(NN)C(=O)O.O` [CARBIDOPA], the entry is “DILI negative (training set)”.
The same measure, in the same setting: as for `ClC(Cl)(Cl)Cl` [CARBON TETRACHLORIDE], the entry is “DILI positive (test set)”; as for `CC1=C(C(=O)O)N2C(=O)[C@@H](NC(=O)[C@H](N)c3ccc(O)cc3)[C@H]2SC1` [CEFADROXIL], “DILI positive (test set)”.
In the case of `Cn1nnnc1SCC1=C(C(=O)[O-])N2C(=O)[C@@H](NC(=O)[C@H](O)c3ccccc3)[C@H]2SC1.[Na+]` [CEFAMANDOLE SODIUM], the Hepatotoxicity entry is “DILI positive (test set)”.
Same read-out and setting: as for `CCN1CCN(C(=O)N[C@@H](C(=O)N[C@@H]2C(=O)N3C(C(=O)O)=C(CSc4nnnn4C)CS[C@H]23)c2ccc(O)cc2)C(=O)C1=O.O.O` [CEFOPERAZONE DIHYDRATE], the entry is “DILI negative (training set)”; as for `CO[C@@]1(NC(=O)C2SC(=C(C(N)=O)C(=O)O)S2)C(=O)N2C(C(=O)O)=C(CSc3nnnn3C)CS[C@@H]21` (stereo partly specified) [CEFOTETAN], “DILI negative (test set)”.
On to `CN(C)CCn1nnnc1SCC1=C(C(=O)O)N2C(=O)[C@@H](NC(=O)Cc3csc(N)n3)[C@H]2SC1.Cl.Cl` [CEFOTIAM HYDROCHLORIDE], for which the Hepatotoxicity result is “DILI positive (test set)”.
Take `CO[C@@]1(NC(=O)Cc2cccs2)C(=O)N2C(C(=O)O)=C(COC(N)=O)CS[C@@H]21` [CEFOXITIN]: the Hepatotoxicity result is given as “DILI positive (test set)”.
Turning to `CC(C)(O/N=C(\C(=O)N[C@@H]1C(=O)N2C(C(=O)[O-])=C(C[n+]3ccccc3)CS[C@H]12)c1csc(N)n1)C(=O)O` [CEFTAZIDIME], the Hepatotoxicity entry was “DILI negative (test set)”.
The same measure, in the same setting: as for `O=C(Cc1cccs1)N[C@@H]1C(=O)N2C(C(=O)[O-])=C(C[n+]3ccccc3)CS[C@H]12` [CEPHALORIDINE], the entry is “DILI positive (test set)”.
The same measure, in the same setting: as for `CC(=O)OCC1=C(C(=O)[O-])N2C(=O)[C@@H](NC(=O)Cc3cccs3)[C@H]2SC1.[Na+]` [CEPHALOTHIN SODIUM], the entry is “DILI positive (test set)”.

The same data set, now with this note: Liver.
Turning to `Nc1ncn([C@@H]2O[C@H](CO)[C@@H](O)[C@H]2O)c(=O)n1` [AZACITIDINE], the Hepatotoxicity entry is “DILI positive (test set)”.
The same measure, in the same setting: as for `Cn1cnc([N+](=O)[O-])c1Sc1ncnc2nc[nH]c12` [AZATHIOPRINE], the entry is “DILI positive (training set)”.
Consider `Cl[C@H]1[C@H](Cl)[C@@H](Cl)[C@H](Cl)[C@@H](Cl)[C@@H]1Cl` [BETA-HEXACHLOROCYCLOHEXANE], for which the Hepatotoxicity entry is “DILI positive (training set)”.
Same read-out and setting: as for `Cc1ccc(-c2cc(C(F)(F)F)nn2-c2ccc(S(N)(=O)=O)cc2)cc1` [CELECOXIB], the entry is “DILI positive (test set)”.
